Data reported in patent US20220389006A1, “SALTS AND FORMS OF AN ESTROGEN RECEPTOR MODULATOR” (Recurium IP Holdings, LLC, priority 2019, published 2022).
Where two headings read alike, the source gives them in different places.

Key:
[1] = Crystallinity during sample preparation (XRPD, FIG. 37); format: physicochemical
Text: FIG. 37 provides a representative XRPD pattern of a second HCl salt of Compound A (prior to sample preparation and after re-preparation of the sample).
(§1) As shown by the top spectrum, the sharp peaks of the HCl salt of Compound A have flattened out compared to the bottom spectrum. […] The data provide in Table 4 further supports the conclusion that Form A maintains its crystallinity compared to the mesylate salt of Compound A.

[2] = Crystallinity before and after grinding (XRPD, FIG. 38); format: physicochemical; conditions: for crystallinity after grinding: grinding with a mortar and pestle for approximately 5 minutes, XRPD FIG. 38
Text: as §1

[3] = HPLC purity before and after heating to 100° C. and 150° C.; format: physicochemical
Method: (§2) Form A retains its crystallinity to a temperature of about 150° C. […] In addition, Form A can be heated to at least to 100° C. that can allow for the removal of any trapped solvent without erosion of purity, which can be beneficial. The purity of initial Form A, Form A after being heated to 100° C., and Form A after being heated to 150° C. are shown.

[4] = TGA of samples heated to 150° C. (FIG. 34); format: physicochemical
Method: FIG. 34 provides a TGA thermogram for (1) Form A for a sample heated to 150° C., and (2) a sample initially dried under vacuum for 3 hours at 40° C.
as §2
TGA data were collected using a TA Discovery 5500 TGA from TA Instruments. DSC was performed using a TA Discovery 2500 DSC from TA Instruments.

MCF7 = experiment: Breast Cancer Cell Proliferation Assay (MCF-7); format: cell-based; conditions: 5 days of compound exposure, Cell Titer-Glo
Method: MCF7 was expanded and maintained in the medium (Phenol red free DMEM/F12 (Hyclone SH30272.01) NEAA (Gibco 11140-050) Na-pyruvate (Gibco 11360-070) and Re-stripped Charcoal stripped FBS (Gemini 100-119)). The cells were adjusted to a concentration of 3,000 cells per mL in the above media, and the cells were incubated (37° C., 5% CO2). The following day a 10 point, serial dilution of compounds was added to the cells at a final concentration ranging from 10-0.000005 μM for the test compounds (17β-estradiol was used as a control). Additional cells were plated in 30 wells to serve as the day 1 (pretreatment) comparison. After 5 days of compound exposure, Cell Titer-Glo reagent was added to the cells, and the relative luminescence units (RLUs) of each well was determined. Cell Titer-Glo was also added to 32 μL of medium without cells to obtain a background value. The plates were allowed to incubate at room temperature for 10 minutes to stabilize luminescent signal, and the luminescence signal was recorded with EnSpire. The relative increase in cell number of each sample is determined as follows: (RLU sample-RLU background/RLU estrogen only treated cells-RLU background)×100=% inhibition.

[5] = Crystallinity / form change upon heating (XRPD); format: physicochemical
Text: For XRPD analysis, PANalytical X'Pert3 X-ray powder diffractometer was used.

[6] = Solid-state storage stability of free base Form I at 5, 40 and 60° C. (HPLC); format: physicochemical; conditions: for Area % of A / Purity vs. Initial %: HPLC
Method: Form I was stable in its solid state at 5° C. for 7 days, but degraded upon storage at 40° C. and 60° C.
In Table 1, “A” represents Compound A, and the data was obtained via HPLC.

SMILES: CC1Cc2c([nH]c3ccccc23)C(c2c(F)cc(C=CC(=O)O)cc2F)N1C12CC(C1)C2.Cl (centres unmarked) [HCl salt of Compound A]
- crystallinity during sample preparation [1]: variable crystallinity

SMILES: CC1Cc2c([nH]c3ccccc23)C(c2c(F)cc(C=CC(=O)O)cc2F)N1C12CC(C1)C2.O=S(=O)(O)O (centres unmarked) [Form A]
- Crystallinity ([2]; After grinding for 5 mins.): Decreased crystallinity
- Crystallinity ([2]; Initial): Crystalline
- crystallinity after grinding [2]: maintain its crystallinity
- stability after one week (25° C. and 60% relative humidity): stable
- stability after one week (40° C. and 75% relatively humidity): stable
- HPLC peak No. 2, RRT 0.55 (degradation) ([3]; After heating to 100° C.): 0.67
- HPLC peak No. 3, RRT 0.59 (degradation) ([3]; After heating to 100° C.): <0.05
- HPLC peak No. 5, RRT 0.90 (degradation) ([3]; After heating to 100° C.): <0.05
- HPLC peak No. 6, RRT 0.94 (degradation) ([3]; After heating to 100° C.): <0.05
- HPLC peak No. 8, RRT 0.97 (degradation) ([3]; After heating to 100° C.): <0.05
- HPLC peak No. 9, RRT 1.00 (Compound A), purity ([3]; After heating to 100° C.): 99.07
- HPLC peak No. 2, RRT 0.55 (degradation) ([3]; After heating to 150° C.): 0.76
- HPLC peak No. 3, RRT 0.59 (degradation) ([3]; After heating to 150° C.): 0.18
- HPLC peak No. 5, RRT 0.90 (degradation) ([3]; After heating to 150° C.): 0.21
- HPLC peak No. 6, RRT 0.94 (degradation) ([3]; After heating to 150° C.): 0.16
- HPLC peak No. 8, RRT 0.97 (degradation) ([3]; After heating to 150° C.): 0.24
- HPLC peak No. 9, RRT 1.00 (Compound A), purity ([3]; After heating to 150° C.): 97.98
- heat-promoted degradation ([3]; HPLC, heated to 100° C. and 150° C.): resistant to heat-promoted degradation
- Purity (area %) ([3]; Heated to 100° C.): 99.1 area %
- Purity (area %) ([3]; Heated to 150° C.): 98.0 area %
- Purity (area %) ([3]; Initial): 99.1 area %
- HPLC peak No. 2, RRT 0.55 (degradation) ([3]; Initial (before heating)): 0.67
- HPLC peak No. 3, RRT 0.59 (degradation) ([3]; Initial (before heating)): <0.05
- HPLC peak No. 5, RRT 0.90 (degradation) ([3]; Initial (before heating)): <0.05
- HPLC peak No. 6, RRT 0.94 (degradation) ([3]; Initial (before heating)): <0.05
- HPLC peak No. 8, RRT 0.97 (degradation) ([3]; Initial (before heating)): <0.05
- HPLC peak No. 9, RRT 1.00 (Compound A), purity ([3]; Initial (before heating)): 99.07
- degradation (FIG. 34) ([4]; sample heated directly to 150 C): 4.47%
- degradation (FIG. 34) ([4]; sample heated to a lower temperature (<100° C.) and then to 150° C.): 3.54%
- IC50 (MCF7): 0.2 nM
- Form change ([5]; Heated to 100° C.): No
- Form change ([5]; Heated to 150° C.): No
- temperature to which crystallinity is retained ([5]; XRPD, FIG. 31): about 150 °C

SMILES: CC1Cc2c([nH]c3ccccc23)C(c2c(F)cc(C=CC(=O)O)cc2F)N1C12CC(C1)C2 (centres unmarked) [Form I]
- stability in solid state ([6]; 5° C. for 7 days): stable
- Area % of A ([6]; 5° C., 1 Day): 98.24%
- Purity vs. Initial % ([6]; 5° C., 1 Day): 99.8%
- Area % of A ([6]; 5° C., 3 Days): 98.09%
- Purity vs. Initial % ([6]; 5° C., 3 Days): 99.6%
- Area % of A ([6]; 5° C., 7 Days): 98.14%
- Purity vs. Initial % ([6]; 5° C., 7 Days): 99.7%
- Area % of A ([6]; 40° C., 1 Day): 97.60%
- Purity vs. Initial % ([6]; 40° C., 1 Day): 99.1%
- Area % of A ([6]; 40° C., 3 Days): 96.79%
- Purity vs. Initial % ([6]; 40° C., 3 Days): 98.3%
- Area % of A ([6]; 40° C., 7 Days): 96.18%
- Purity vs. Initial % ([6]; 40° C., 7 Days): 97.7%
- Area % of A ([6]; 60° C., 1 Day): 93.42%
- Purity vs. Initial % ([6]; 60° C., 1 Day): 94.9%
- Area % of A ([6]; 60° C., 3 Days): 88.31%
- Purity vs. Initial % ([6]; 60° C., 3 Days): 89.7%
- Area % of A ([6]; 60° C., 7 Days): 80.95%
- Purity vs. Initial % ([6]; 60° C., 7 Days): 82.2%
- degradation ([6]; after 7 days at 40° C.): approximately 2%
- degradation ([6]; after 7 days at 60° C.): approximately 18%
- crystallinity upon heating ([5]; XRPD, FIG. 30 (initially, after 1, 3 and 7 days)): lose crystallinity

SMILES: CC1Cc2c([nH]c3ccccc23)C(c2c(F)cc(C=CC(=O)O)cc2F)N1C12CC(C1)C2.CS(=O)(=O)O (centres unmarked) [Mesylate salt of Compound A]
- Crystallinity ([2]; After grinding for 5 mins.): Amorphous
- Crystallinity ([2]; Initial): Crystalline
- crystallinity after grinding [2]: loss of crystallinity
- Purity (area %) ([3]; Heated to 100° C.): 98.4 area %
- Purity (area %) ([3]; Heated to 150° C.): 97.1 area %
- Purity (area %) ([3]; Initial): 98.4 area %
- Form change ([5]; Heated to 100° C.): No
- Form change ([5]; Heated to 150° C.): No

SMILES: C[C@@H]1Cc2c([nH]c3ccccc23)[C@@H](c2c(F)cc(/C=C/C(=O)O)cc2F)N1C12CC(C1)C2 [Free base of Compound A, (E)-3-(4-((1R,3R)-2-(Bicyclo[1.1.1]pentan-1-yl)-3-methyl-2,3,4,9-tetrahydro-1H-pyrido[3,4-b]indol-1-yl)-3,5-difluorophenyl)acrylic acid]
- IC50 (MCF7; Homo sapiens, MCF7, 120 h): 0.4 nM
